Here are results for eight molecules from PubChem BioAssay (NCI).

Among the test systems are CAKI-1 renal; COLO 205 colon; DU-145 prostate; MDA-MB-435; MOLT-4 leukemia; NCI/ADR-RES ovarian; SK-MEL-28 melanoma; SNB-75 CNS; SR leukemia; IGROV1 ovarian.
Common to all, as to test: NCI-60 cell line screen, 48 h

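Briefly, cells in 96-well plates were exposed to five compound concentrations for 48 h, and endpoints were estimated by linear interpolation. Abbreviation: GI50, concentration required for 50% inhibition of growth. TGI: concentration producing complete growth inhibition.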

On to `COC(=O)/C(Br)=C/c1c[nH]c2ccc(Br)cc12`, for which the GI50 in the assay with CAKI-1 renal was 12.9 µM; in the assay with COLO 205 colon it was 12.5 µM; with DU-145 prostate, 13.2 µM; with MDA-MB-435, 12.2 µM; with MOLT-4 leukemia, 10.6 µM; in the assay on NCI/ADR-RES ovarian, 12.4 µM. In addition, the GI50 was 14.3 µM in the assay with SK-MEL-28 melanoma, 12.2 µM in the assay on SNB-75 CNS and 26.9 µM with SR leukemia. The TGI in the assay on CAKI-1 renal is 29.1 µM; in the assay with COLO 205 colon it was 25.1 µM; in the assay with DU-145 prostate it was 25.9 µM; in the assay on MDA-MB-435 it was 25.3 µM; in the assay on MOLT-4 leukemia it was greater than 100 µM; in the assay on NCI/ADR-RES ovarian, 47.8 µM. Further, the TGI in the assay with SK-MEL-28 melanoma is 27.8 µM; with SNB-75 CNS it was 33 µM; with SR leukemia, greater than 100 µM.
For the molecule `COc1ccc(OC)c(/C=C/c2cnnc3ccccc23)c1`, the TGI was greater than 10 µM with CAKI-1 renal; greater than 10 µM with COLO 205 colon; greater than 10 µM with DU-145 prostate; greater than 10 µM in the assay with IGROV1 ovarian; 2.01 µM in the assay on MDA-MB-435; greater than 10 µM in the assay with MOLT-4 leukemia. For the same molecule, the TGI was 7.81 µM in the assay on NCI/ADR-RES ovarian, greater than 10 µM with SK-MEL-28 melanoma, greater than 10 µM in the assay on SNB-75 CNS and 5.14 µM in the assay with SR leukemia.
As to `O=C(Nc1cccc(-n2cc(-c3ccncc3)c(-c3ccc(O)c(Cl)c3)n2)c1)Nc1ccc(Cl)c(C(F)(F)F)c1`, the GI50 in the assay with CAKI-1 renal is 2.02 µM; with COLO 205 colon, 1.77 µM; with DU-145 prostate it was 2.54 µM; in the assay on IGROV1 ovarian, 2.82 µM; in the assay with MDA-MB-435 it was 1.98 µM; in the assay with MOLT-4 leukemia, 1.64 µM. In addition, the GI50 is 2.96 µM with NCI/ADR-RES ovarian, 1.67 µM with SK-MEL-28 melanoma, 1.23 µM in the assay with SNB-75 CNS and 1.6 µM with SR leukemia. Moreover, the TGI in the assay with CAKI-1 renal was 7.33 µM; in the assay with COLO 205 colon, 3.32 µM; in the assay with DU-145 prostate, 7.76 µM; in the assay on IGROV1 ovarian, 8.12 µM; in the assay on MDA-MB-435 it was 4.88 µM; with MOLT-4 leukemia, 4.65 µM. Besides, the TGI came out at 9.03 µM in the assay on NCI/ADR-RES ovarian, 3.8 µM with SK-MEL-28 melanoma, 6.85 µM with SNB-75 CNS and 5.6 µM in the assay with SR leukemia.
Consider `N=C1N=Nc2nc(C3(c4nc5n(c4O)C(=N)N=N5)Cc4ccccc4C3=O)c(O)n21` (centres undefined), for which the TGI in the assay on CAKI-1 renal, in the assay on COLO 205 colon, in the assay on DU-145 prostate, in the assay with IGROV1 ovarian, in the assay with MDA-MB-435 and in the assay on MOLT-4 leukemia was greater than 100 µM throughout. Further, the TGI with NCI/ADR-RES ovarian, in the assay with SK-MEL-28 melanoma, with SNB-75 CNS and in the assay with SR leukemia was greater than 100 µM in each case. Further, the GI50 with IGROV1 ovarian is 63.7 µM.
For the molecule `Cc1cc(Cl)ccc1Nc1nc(C(F)(F)F)ccc1C(=O)N/N=C/c1ccc(F)cc1`, the GI50 was 1.82 µM in the assay on CAKI-1 renal; 1.61 µM with COLO 205 colon; 3.46 µM with DU-145 prostate; 2.11 µM in the assay on IGROV1 ovarian; 2.78 µM in the assay on MDA-MB-435; 1.6 µM with MOLT-4 leukemia. The GI50 in the assay on NCI/ADR-RES ovarian is 2.27 µM; with SK-MEL-28 melanoma, 2.01 µM; with SNB-75 CNS, 1.55 µM; in the assay with SR leukemia it was 0.863 µM. The TGI with CAKI-1 renal was 6.55 µM; with COLO 205 colon it was 3.64 µM; with DU-145 prostate, 13.8 µM; in the assay on IGROV1 ovarian, 13.9 µM; in the assay with MDA-MB-435, 11 µM; in the assay on MOLT-4 leukemia, 4.98 µM. Moreover, the TGI turned out to be 19.2 µM in the assay on NCI/ADR-RES ovarian, 10.6 µM in the assay on SK-MEL-28 melanoma, 9.45 µM in the assay with SNB-75 CNS and 3.62 µM in the assay with SR leukemia.
`Nc1nn(C(=O)Nc2ccc(Cc3ccccc3)cc2)c2ccccc12`: the GI50 is 21.1 µM in the assay with CAKI-1 renal; 13.4 µM in the assay on COLO 205 colon; 1.02 µM in the assay with DU-145 prostate; 6.98 µM in the assay on IGROV1 ovarian; 2.82 µM in the assay on MDA-MB-435; 0.636 µM with MOLT-4 leukemia. Besides, the GI50 in the assay on NCI/ADR-RES ovarian was 7.87 µM; in the assay with SK-MEL-28 melanoma it was 11.5 µM; with SNB-75 CNS, 17 µM; in the assay on SR leukemia it was 0.0153 µM. For the same molecule, the TGI with CAKI-1 renal is 58 µM; in the assay on COLO 205 colon, 37.7 µM; with DU-145 prostate, 28.3 µM; in the assay on IGROV1 ovarian it was 48.8 µM; in the assay with MDA-MB-435, greater than 100 µM; with MOLT-4 leukemia, 20.4 µM. Moreover, the TGI in the assay with NCI/ADR-RES ovarian is greater than 100 µM; with SK-MEL-28 melanoma, greater than 100 µM; with SNB-75 CNS, 47.4 µM; in the assay on SR leukemia it was 0.0822 µM.
`Cc1ccc(S(=O)(=O)C2=C3C(=C(c4ccccc4)c4ccccc43)CN(S(=O)(=O)c3ccc(C)cc3)C2)cc1`: the GI50 in the assay with CAKI-1 renal was 11.5 µM; in the assay on COLO 205 colon it was 14.9 µM; with DU-145 prostate, 11.8 µM; in the assay with IGROV1 ovarian, 5.36 µM; in the assay with MDA-MB-435, 3.76 µM; with MOLT-4 leukemia it was 1.36 µM. For the same molecule, the GI50 in the assay on NCI/ADR-RES ovarian is 2.98 µM; with SK-MEL-28 melanoma, 15 µM; with SNB-75 CNS, 2.92 µM; in the assay with SR leukemia, 1.55 µM. The TGI in the assay on CAKI-1 renal is greater than 100 µM; with COLO 205 colon it was greater than 100 µM; in the assay on DU-145 prostate, greater than 100 µM; in the assay on IGROV1 ovarian it was 62.6 µM; in the assay with MDA-MB-435, 17.9 µM; in the assay on MOLT-4 leukemia, 7.9 µM. Besides, the TGI in the assay on NCI/ADR-RES ovarian was determined as 90.7 µM; with SK-MEL-28 melanoma it was 52.3 µM; in the assay on SNB-75 CNS it was 31.6 µM; in the assay with SR leukemia, 25.7 µM.
On to `COc1ccc(C2SC(C)C(=O)N2NC(=O)C(O)c2ccccc2)cc1` (centres undefined), for which the GI50 with CAKI-1 renal, in the assay with COLO 205 colon, with DU-145 prostate, with IGROV1 ovarian, in the assay with MDA-MB-435 and with MOLT-4 leukemia was greater than 100 µM throughout. The GI50 is greater than 100 µM with NCI/ADR-RES ovarian, greater than 100 µM with SK-MEL-28 melanoma, 60.3 µM in the assay on SNB-75 CNS and 63 µM with SR leukemia. Besides, the TGI in the assay with CAKI-1 renal, with COLO 205 colon, in the assay with DU-145 prostate, in the assay on IGROV1 ovarian, in the assay with MDA-MB-435 and in the assay on MOLT-4 leukemia was greater than 100 µM each time. Further, the TGI with NCI/ADR-RES ovarian, with SK-MEL-28 melanoma, in the assay with SNB-75 CNS and in the assay with SR leukemia was greater than 100 µM each time.
